Data published in US20200368262A1, “Use of Timosaponin Enzymatically Transformed Product in Preparation of Drugs for Inhibiting Skin Superficial Fungi” (Shanghai University of Traditional Chinese Medicine, priority 2019, published 2020).
In brackets after ≈: the same amount, converted by molar mass.

How the values were obtained:
Test in all cases: Trace liquid-based dilution MIC
Format in all cases: cell-based
[1] = tested on: Cryptococcus neoformans 32609; settings: MIC80 (OD 630 nm reduced by 80% or more), 35° C., 72 hours, read-out: In vitro Bacteriostatic Activity (MIC) Cryptococcus neoformans 32609
Excerpt: (§1) Spherical bacteria such as cryptococcus neoformans and candida albicans were taken, and activated with YEPD culture solution, and then the concentration of the bacteria solution was adjusted with RPM11640 culture solution to 1×10^3˜5 ×10^3 CFU/mL.
(§2) In the present experiment, the minimum inhibitory concentrations of the ethanol extract of rhizoma anemarrhenae and the timosaponin enzymatically transformed product against five common pathogenic fungi were detected by through a trace liquid-based dilution method recommended by the Clinical and Laboratory Standards Institute and the Chinese pharmacopoeia. Fluconazole was used as a positive control drug.
(§3) A specific experimental method is as follows: candida albicans, cryptococcus neoformans, trichophyton rubrum, trichophyton mentagrophytes, and microsporum gypseum were inoculated to a 96-well plate, respectively. The drug with different concentrations was added to the culture, wherein final concentrations of the drug were 64 mg/L, 32 mg/L, 16 mg/L, 8 mg/L, 4 mg/L, 2 mg/L, 1 mg/L, and 0.5 mg/L, respectively. Fungi treated without drug was used as positive control. The candida albicans was cultured at 35° C. for 24 hours while the cryptococcus neoformans was cultured at 35° C. for 72 hours and the trichophyton rubrum, the trichophyton mentagrophytes, and the microsporum gypseum were cultured at 30° C. for 7 days. The OD value of each well under the wavelength of 630 nm was measured using an microplate reader. The lowest drug concentration with an OD value reduced by 80% or more compared with the positive control wells was considered as MIC8o, namely the drug concentration inducing 80% inhibition against fungus growth was inhibited by 80%. When the MIC80 value of the drug was higher than the maximum concentration of 64 mg/L, “>64 mg/L” was recorded.

C. albicans SC5314 = settings: Candida albicans, MIC80 (OD 630 nm reduced by 80% or more), 35° C., 24 hours, read-out: In vitro Bacteriostatic Activity (MIC) C. albicans SC5314
Excerpt: as §1, §2, §3

C. albicans Y0109 = settings: Candida albicans, MIC80 (OD 630 nm reduced by 80% or more), 35° C., 24 hours, read-out: In vitro Bacteriostatic Activity (MIC) C. albicans Y0109
Excerpt: as §1, §2, §3

Microsporum gypseum mzc = settings: MIC80 (OD 630 nm reduced by 80% or more), 30° C., 7 days; for MIC: Nannizzia gypsea, 168 h, read-out: In vitro Bacteriostatic Activity (MIC) Microsporum gypseum mzc
Excerpt: (§4) Trichophyton rubrum, microsporum gypseum, and trichophyton mentagrophytes were activated with a Sabouraud glucose agar culture medium, and the concentration of spores was adjusted with an RPM11640 culture solution to 1×10^35×10^3 CFU/mL.
as §2, §3

Trichophyton rubrum tia = settings: MIC80 (OD 630 nm reduced by 80% or more), 30° C., 7 days; for MIC: Trichophyton rubrum, 168 h, read-out: In vitro Bacteriostatic Activity (MIC) Trichophyton rubrum tia
Excerpt: as §4, §2, §3

[2] = tested on: trichophyton mentagrophytes t5a; settings: MIC80 (OD 630 nm reduced by 80% or more), 30° C., 7 days; for MIC: Trichophyton mentagrophytes, T5A, 168 h, read-out: In vitro Bacteriostatic Activity (MIC) trichophyton mentagrophytes t5a
Excerpt: as §4, §2, §3

OC(Cn1cncn1)(Cn1cncn1)c1ccc(F)cc1F [fluconazole]
MIC [1]: 1 µg/mL (≈ 3.27 µM)
MIC (C. albicans SC5314): 0.5 µg/mL (≈ 1.63 µM)
MIC (C. albicans Y0109): 1 µg/mL (≈ 3.27 µM)
MIC (Microsporum gypseum mzc): 8 µg/mL (≈ 26.1 µM)
MIC (Trichophyton rubrum tia): 2 µg/mL (≈ 6.53 µM)
MIC [2]: 32 µg/mL (≈ 104 µM)

CC[C@@H]([C@H](C)O)n1ncn(-c2ccc(N3CCN(c4ccc(OC[C@@H]5CO[C@@](Cn6cncn6)(c6ccc(F)cc6F)C5)cc4)CC3)cc2)c1=O [posaconazole]
MIC [1]: 0.25 µg/mL (≈ 0.357 µM)
MIC (C. albicans SC5314): 0.5 µg/mL (≈ 0.713 µM)
MIC (C. albicans Y0109): 1 µg/mL (≈ 1.43 µM)
MIC (Microsporum gypseum mzc): 0.25 µg/mL (≈ 0.357 µM)
MIC (Trichophyton rubrum tia): 2 µg/mL (≈ 2.85 µM)
MIC [2]: 0.25 µg/mL (≈ 0.357 µM)

C[C@H]1CC[C@@]2(OC1)O[C@H]1C[C@H]3[C@@H]4CC[C@@H]5C[C@@H](O[C@@H]6O[C@H](CO)[C@H](O)[C@H](O)[C@H]6O[C@@H]6O[C@H](CO)[C@@H](O)[C@H](O)[C@H]6O)CC[C@]5(C)[C@H]4CC[C@]3(C)[C@H]1[C@@H]2C [timosaponin AIII]
MIC [1]: 4 µg/mL (≈ 5.4 µM)
MIC (C. albicans SC5314): 4 µg/mL (≈ 5.4 µM)
MIC (C. albicans Y0109): 4 µg/mL (≈ 5.4 µM)
In vitro Bacteriostatic Activity (MIC) Microsporum gypseum mzc (Microsporum gypseum mzc; listed as timosaponin Alll): 2 µg/mL
MIC (Microsporum gypseum mzc): 4 µg/mL (≈ 5.4 µM)
In vitro Bacteriostatic Activity (MIC) Trichophyton rubrum tia (Trichophyton rubrum tia; listed as timosaponin Alll): 2 µg/mL
MIC (Trichophyton rubrum tia): 4 µg/mL (≈ 5.4 µM)
In vitro Bacteriostatic Activity (MIC) trichophyton mentagrophytes t5a ([2]; listed as timosaponin Alll): 2 µg/mL
MIC [2]: 4 µg/mL (≈ 5.4 µM)
